Values after ≈ are worked out from the molar mass of the structure shown. Read-outs that look alike come from different tables or passages of the source.
Columns and labels:
[1] = molecular target: ACAT (small intestine); experiment: ACAT inhibitory action, enzyme from small intestine; assay type: biochemical; conditions: B = the small intestine of rabbits fed normal feed; 14C-oleoyl-CoA, 37°C, three minutes
Experimental: (§1) Microsome was prepared by a conventional method from stethartery of rabbits fed for eight weeks with a 1% cholesterol feed and was suspended in a 0.15M phosphate buffer (pH 7.4) to provide an enzyme solution. An enzyme solution derived from small intestine was prepared from small intestine or rabbits fed with normal feed. […] The solvent layer was concentrated to dryness, the residue was dissolved in hexane and the solution was spotted on a TLC plate (manufactured by Merck) followed by developing with hexane : ether : acetic acid (75:25:1). Radioactivity of the resulting cholesterol ester fraction was measured by a BAS 2000 (manufactured by Fuji Photo Film) and IC50 values were determined from a comparative calculation with the control to which only DMSO was added.

[2] = tested on: J774 cells; experiment: ACAT inhibitory action (anti-foaming action) in J774 cells; conditions: for IC50 (HepG2) /IC50 (J774): ratio HepG2 / J774, 1080 min
Experimental: (§2) The medium was removed and, after washing with PBS twice, extraction was conducted with 1.5 ml of hexane : isopropanol (3:2) followed by concentrating to dryness. The extract was dissolved in 0.2 ml of isopropanol containing 10% of 10% Triton X-100 and total cholesterol (TC) and free cholesterol (FC) were determined by a Cholesterol E Test Wako (Wako Pure Chemicals) and a Free Cholesterol E Test Wako (Wako Pure Chemicals), respectively. Residue of the cells after extraction was solubilized with 0.25 ml of 2N NaOH at 30°C for 30 minutes and amount of protein was determined by means of a BCA Protein Assay Reagent (Pierce). From the difference between TC and FC, amount of cholesterol ester per protein was calculated and then IC50 was determined by means of a comparative calculation with the control.

[3] = molecular target: ACAT (blood vessel wall); experiment: ACAT inhibitory action, microsome enzyme from blood vessel wall (stethartery); assay type: biochemical, rabbits; conditions: for IC50: A = the blood vessel wall, microsome from stethartery of rabbits fed 1% cholesterol feed, 14C-oleoyl-CoA, 37°C, five minutes; for IC50 (B) /IC50 (A): ratio small intestine / blood vessel wall
Experimental: as §1

[4] = tested on: HepG2 cells; experiment: ACAT inhibitory action (anti-foaming action) in HepG2 cells
Experimental: as §2

[5] = Disintegration test: solubility in liquid No.1 for disintegration test of the Japanese Pharmacopoeia; assay type: physicochemical; conditions: jp disintegration liquid no.1; pH 1.2; liquid No.1, shaken two hours, room temperature one hour, 0.45 µm filter
Experimental: Absorbance of a mixture of this filtrate with methanol in the same amounts was measured and, from the previously-determined ε1% 1cm values, solubility was calculated.

[6] = Mus musculus, J774, 18 h, read-out: Enzyme (J774) IC50(µM)
[7] = Homo sapiens, HepG2, 18 h, read-out: Enzyme (HepG2) IC50(µM)

IC50 [1] [µM] | IC50 [2, 6] [µM] | IC50 (HepG2) /IC50 (J774) [2] | IC50 [3] [µM] | IC50 (B) /IC50 (A) [3] | IC50 [4, 7] [µM] | solubility [5] [µg/mL] | Compound | IC50 ([2]; read-out: Enzyme (J774) IC50, J774 cells, 10 µg/ml 25-OH cholesterol, 18 hours, cholesterol ester per protein) [µM] | IC50 ([4]; read-out: Enzyme (HepG2) IC50, HepG2 cells, 10 µg/ml 25-OH cholesterol, 18 hours, cholesterol ester per protein) [µM]
0.21 | 0.014 | 58.6 | 0.04 | 5.3 | 0.82 |  | CCOCCOc1cc(C(C)C)c(NC(=O)CN2CCN(CCSc3nc4ccccc4o3)CC2)c(C(C)C)c1 [Example 78, 2-[4-[2-(benzoxazol-2-ylthio)ethyl]piperazin-1-yl]-N-[2,6-diisopropyl-4-(2-ethoxyethyl)oxyphenyl)acetamide] |  | 
0.039 |  | 18.2 | 0.035 | 1.1 |  |  | COC(=O)c1cccc2nc(SCCCN3CCN(CC(=O)Nc4c(C(C)C)cccc4C(C)C)CC3)oc12 [Example 10, 2-[4-[3-(7-methoxycarbonylbenzoxazol - 2-ylthio)propyl]piperazin-1-yl]-N-(2,6-diisopropylphenyl) acetamide] |  | 
0.21 | 0.1 | >100 | 0.038 | 5.5 | > 10 |  | COc1cc(C(C)C)c(NC(=O)CN2CCN(CCSc3nc4ccccc4o3)CC2)c(C(C)C)c1 [Example 75, 2-[4-[2-(benzoxazol-2-ylthio)ethyl]-piperazin-1-yl]-N-(2,6-diisopropyl-4-methoxyphenyl)-acetamide] |  | 
0.059 | 0.019 | >53 | 0.012 | 4.9 | > 1 |  | CC(C)c1cccc(C(C)C)c1NC(=O)CN1CCN(CCSc2nc3cccc(C(F)(F)F)c3o2)CC1 [Example 85, 2-[4-[2-(7-trifluoromethylbenzoxazol-2-ylthio)ethyl]piperazin-1-yl]-N-(2,6-diisopropylphenyl)acetamide] |  | 

More lines, now with the values behind:

Compound | IC50 [1] [µM] | IC50 [2, 6] [µM] | IC50 (HepG2) /IC50 (J774) [2] | IC50 [3] [µM] | IC50 (B) /IC50 (A) [3] | IC50 [4, 7] [µM] | solubility [5] [µg/mL] | IC50 ([2]; read-out: Enzyme (J774) IC50, J774 cells, 10 µg/ml 25-OH cholesterol, 18 hours, cholesterol ester per protein) [µM] | IC50 ([4]; read-out: Enzyme (HepG2) IC50, HepG2 cells, 10 µg/ml 25-OH cholesterol, 18 hours, cholesterol ester per protein) [µM]
CCCCCCCCCN(CC(C)(C)C)C(=O)N[C@H]1CCCC[C@@H]1OC(=O)CCNC(=O)C1OC(C)(C)OCC1(C)C (stereo partly shown) [Control 3, reference compound] | 0.056 |  |  | 0.034 |  |  |  |  | 
COC(=O)c1cccc2oc(SCCN3CCN(CC(=O)Nc4c(C(C)C)cccc4C(C)C)CC3)nc12 [Example 5, 2-[4-[2-(4-methoxycarbonylbenzoxazol-2-ylthio)ethyl]-piperazin-1-yl]-N-(2,6-diisopropylphenyl) acetamide] | 0.13 |  | 14.5 | 0.056 | 2.3 |  |  |  | 
CCCC(CCCCC(=O)Nc1c(C(C)C)cccc1C(C)C)Sc1nc2ccccc2o1 (stereo not shown) [Control 5, 6-(Benzoxazol-2-ylthio)-N-(2,6-diisopropylphenyl)nonanamide] |  |  |  |  |  |  | 0.05 (≈ 0.107 µM) |  | 
CCCCCCCN(CCCCCSc1nc(-c2ccccc2)c(-c2ccccc2)[nH]1)c1nc2ccccc2o1 [Control 4, reference compound] | 0.037 |  | 6.3 | 0.026 | 1.4 |  |  | 0.12 | 0.75
CC(C)c1cccc(C(C)C)c1NC(=O)C(C)(C)CCCOc1ccc2c(c1)C=C(c1nccn1C)C(CCc1ccc(F)cc1)O2 (stereo not shown) [Control 1, 5-[2-(2-(4-Fluorophenyl)ethyl)-3-(1-methyl-1H-imidazol-2-yl)-2H-1-benzopyran-6-yl]oxy-2,2-dimethyl-N-(2,6-diisopropylphenyl) -pentanamide, reference compound] | 0.87 | 0.56 | 9.5 | 0.45 | 1.9 |  |  |  | 

Source: patent EP0987254B1, “NOVEL CYCLIC DIAMINE COMPOUNDS AND MEDICINE CONTAINING THE SAME” (Kowa Co., Ltd., priority 1997, dated 1998)
